Some results are limits rather than exact numbers.

Common to all, as to assay type: cell-based
The target of one test is DOR (Homo sapiens, UniProt P41143). As to the kind of experiment: DOR calcium mobilization agonist/antagonist screen (CHO-RD-HGA16 cells). The arrangement: host or cells: CHO-RD-HGA16. The note with it: single concentration. The method, then:
(§1) Compounds were evaluated for kappa (KOR), mu (MOR), and delta (DOR) opioid receptor agonist and antagonist activity in three individual cell lines overexpressing Gαq16 (CHO-RD-HGA16, Molecular Devices) and the human kappa, mu, and delta opioid receptors, respectively. The day before the assay, cells were plated into 96-well black-walled assay plates at 30,000 cells/well in Ham's F12 supplemented with 10% fetal bovine serum, and 100 units of penicillin and streptomycin. The cells were incubated overnight at 37° C., 5% CO2. Prior to the assay, Calcium 5 dye (Molecular Devices) was reconstituted according to the manufacturer's instructions. The reconstituted dye was diluted 1:40 in pre-warmed (37° C.) assay buffer (1×HBSS, 20 mM HEPES, 2.5 mM probenecid, pH 7.4 at 37° C.). Growth medium was removed and the cells were gently washed with 100 μL of pre-warmed (37° C.) assay buffer. The cells were incubated for 45 minutes at 37° C., 5% CO2 in 200 μL of the diluted Calcium 5 dye. For the agonist screen, a single concentration of each test compound and receptor-specific controls (U69,593, DAMGO, and DPDPE for KOR, MOR, and DOR, respectively) were prepared at 10× the desired final concentration in 1% DMSO/assay buffer, aliquoted into a 96-well polystyrene plate, and warmed to 37° C. After the dye-loading incubation period, pretreatment solution was added to each well (25 μL of 9% DMSO/assay buffer) and, after 15 min, the plate was read with a FlexStation II (Molecular Devices). Calcium-mediated changes in fluorescence were monitored every 1.52 seconds over a 60 second time period, with the FlexStation II adding 50 μL of test compounds at the 19 second time point (excitation at 485 nm, detection at 525 nm). Peak kinetic reduction (SoftMax, Molecular Devices) relative fluorescence units (RFU) were used to calculate % control agonist Emax with the equation % Emax=(test compound RFU/control agonist RFU)×100. For the antagonist screens, the same procedure was followed except that the pretreatment solution consisted of the test compounds (prepared at […] the desired final concentration in 9% DMSO/assay buffer) and the FlexStation added the EC60 concentration (prepared at 10× the desired final concentration in 1% DMSO/assay buffer) of each respective control agonist. Peak RFU were used to calculate % control EC60 inhibition with the equation % inhibition=((EC60 RFU−test compound RFU)/EC60 RFU)×100. When IC50 determinations were made, the same antagonist screen procedure was followed except that cells were pretreated with 8-pt concentration-response curves of the test compounds. Peak RFU were plotted against the log of compound concentration using non-linear regression analysis to generate IC50 values (GraphPad Prism). Each test sample was analyzed in duplicate in two independent experiments.

The next test concerns the target T1, CaV 3.2 (Homo sapiens, UniProt O95180).
T1 construct: expressed in transfected cells
Kind of test: CaV 3.2 calcium assay in stable human CaV3.2-HEK293 cells. The note with it: control agonist calcium chloride. The method, then: as §1
Compounds were evaluated for activity at CaV 3.2 using stable human CaV3.2-HEK293 cells and the control agonist calcium chloride. The day before the assay, cells were plated into 96-well black-walled assay plates coated with poly-D-lysine in DMEM-F12 supplemented with 10% fetal bovine serum, 100 units penicillin/streptomycin, and 500 μM sodium pyruvate, and incubated at 37° C., 5% CO2 overnight. Prior to the assay, Calcium 5 dye (Molecular Devices) was reconstituted according to the manufacturer instructions. The reconstituted dye was diluted 1:10 in pre-warmed (37° C.) assay buffer (1×HBSS, […], […], pH 7.4 at 37° C.). The cells were incubated for 45 minutes at 37° C., 5% CO2 in 200 μL of the diluted Calcium 5 dye. Compounds were prepared as described above and the plate was read with a FLIPR Tetra (Molecular Devices). Calcium-mediated changes in fluorescence were monitored every 1 second over a 60 second time period, with the Tetra adding 25 μL of appropriate compound at the 10 second time point (excitation at 470-495 nm, detection at 515-575 nm). […]

The next test concerns the target T2, human CXCR4 (Homo sapiens, UniProt P61073).
T2 construct: host or cells: C2C12
Kind of test: CXCR4 β-arrestin recruitment assay (PathHunter). Particulars: human CXCR4-C2Cl2 cells, relative to CXCL-12. A digest of the protocol: (§2)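 Agonist mode in PathHunter CHO cells expressing human ACKR3-β-arrestin-2, compounds added in DPBS/1% DMSO for 1.5 hr at 37° C, then detection 1 hr at room temperature, luminescence read. CXCR4 run in C2C12 cells with a 3 hr Cell Plating Reagent 4 preincubation. EC50 and % Emax from three-parameter fits, CXCL-12 as reference agonist; ≥2 independent experiments in duplicate.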

The next test addresses KOR (Homo sapiens, UniProt P41145). As to the kind of experiment: KOR calcium mobilization agonist/antagonist screen (CHO-RD-HGA16 cells). The note with it: single concentration. More on the design: host or cells: CHO-RD-HGA16. The procedure: as §1
For the next test, the target named is MOR (Homo sapiens, UniProt P35372). As to the kind of experiment: MOR calcium mobilization agonist/antagonist screen (CHO-RD-HGA16 cells). The arrangement: host or cells: CHO-RD-HGA16. Particulars: single concentration. The method, then: as §1
Sequence of MOR (P35372 whole entry): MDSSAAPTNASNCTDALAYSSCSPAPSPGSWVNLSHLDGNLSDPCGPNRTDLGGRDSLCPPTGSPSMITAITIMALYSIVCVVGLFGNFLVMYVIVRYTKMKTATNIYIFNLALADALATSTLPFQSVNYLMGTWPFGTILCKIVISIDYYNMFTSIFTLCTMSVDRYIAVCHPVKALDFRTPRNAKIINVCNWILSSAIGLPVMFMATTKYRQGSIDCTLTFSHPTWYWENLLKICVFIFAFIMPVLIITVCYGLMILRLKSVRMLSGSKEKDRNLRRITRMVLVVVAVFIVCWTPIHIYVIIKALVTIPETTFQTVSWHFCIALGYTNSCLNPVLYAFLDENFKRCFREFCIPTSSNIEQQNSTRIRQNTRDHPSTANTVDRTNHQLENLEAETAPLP
Another test has as its target ACKR3 (Homo sapiens, UniProt P25106). As to the kind of experiment: ACKR3 β-arrestin recruitment assay (PathHunter, β-galactosidase complementation). Particulars: stable human ACKR3-β-arrestin-2-CHO cells; mean ± SEM, at least two independent experiments in duplicate. A digest of the protocol:
as §2

Sequence of KOR (P41145 whole entry): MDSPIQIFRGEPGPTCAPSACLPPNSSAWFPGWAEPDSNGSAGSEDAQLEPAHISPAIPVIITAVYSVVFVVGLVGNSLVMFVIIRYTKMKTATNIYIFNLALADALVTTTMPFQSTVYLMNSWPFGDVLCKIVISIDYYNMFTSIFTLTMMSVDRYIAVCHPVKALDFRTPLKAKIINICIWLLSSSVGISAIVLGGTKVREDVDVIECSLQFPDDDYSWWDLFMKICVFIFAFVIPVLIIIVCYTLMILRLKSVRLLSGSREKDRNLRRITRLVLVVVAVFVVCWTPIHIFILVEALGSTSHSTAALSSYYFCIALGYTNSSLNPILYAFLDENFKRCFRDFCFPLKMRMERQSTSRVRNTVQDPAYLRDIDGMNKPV
Sequence of DOR (P41143 whole entry): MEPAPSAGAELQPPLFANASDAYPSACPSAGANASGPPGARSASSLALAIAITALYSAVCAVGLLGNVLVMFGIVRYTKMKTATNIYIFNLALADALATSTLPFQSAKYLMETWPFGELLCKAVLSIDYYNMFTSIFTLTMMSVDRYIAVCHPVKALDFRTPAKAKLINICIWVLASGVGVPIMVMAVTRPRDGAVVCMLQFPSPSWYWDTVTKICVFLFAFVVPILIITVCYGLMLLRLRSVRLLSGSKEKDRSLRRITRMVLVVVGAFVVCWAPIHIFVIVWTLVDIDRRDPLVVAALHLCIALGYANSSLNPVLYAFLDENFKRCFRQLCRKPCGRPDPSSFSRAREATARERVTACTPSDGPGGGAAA
Sequence of ACKR3 (P25106 whole entry): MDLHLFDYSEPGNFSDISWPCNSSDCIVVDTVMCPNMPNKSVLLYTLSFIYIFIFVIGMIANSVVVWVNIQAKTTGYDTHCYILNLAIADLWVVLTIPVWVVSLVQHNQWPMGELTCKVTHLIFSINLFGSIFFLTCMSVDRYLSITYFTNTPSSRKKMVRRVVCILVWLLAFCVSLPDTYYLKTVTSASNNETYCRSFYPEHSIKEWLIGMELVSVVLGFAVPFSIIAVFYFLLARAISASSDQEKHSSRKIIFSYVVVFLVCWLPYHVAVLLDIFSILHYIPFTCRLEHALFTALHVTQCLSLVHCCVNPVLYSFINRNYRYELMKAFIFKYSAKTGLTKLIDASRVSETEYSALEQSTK
T2 sequence (P61073 whole entry): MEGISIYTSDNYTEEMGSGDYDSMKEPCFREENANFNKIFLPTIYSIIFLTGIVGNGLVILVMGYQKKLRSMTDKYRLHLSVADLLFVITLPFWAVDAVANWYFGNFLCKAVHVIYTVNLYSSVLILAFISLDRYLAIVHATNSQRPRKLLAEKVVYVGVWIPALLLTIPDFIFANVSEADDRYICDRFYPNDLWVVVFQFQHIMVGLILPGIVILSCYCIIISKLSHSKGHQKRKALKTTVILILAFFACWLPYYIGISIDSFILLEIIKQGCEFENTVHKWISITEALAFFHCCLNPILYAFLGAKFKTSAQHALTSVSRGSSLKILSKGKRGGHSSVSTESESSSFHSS
T1 sequence (O95180 whole entry): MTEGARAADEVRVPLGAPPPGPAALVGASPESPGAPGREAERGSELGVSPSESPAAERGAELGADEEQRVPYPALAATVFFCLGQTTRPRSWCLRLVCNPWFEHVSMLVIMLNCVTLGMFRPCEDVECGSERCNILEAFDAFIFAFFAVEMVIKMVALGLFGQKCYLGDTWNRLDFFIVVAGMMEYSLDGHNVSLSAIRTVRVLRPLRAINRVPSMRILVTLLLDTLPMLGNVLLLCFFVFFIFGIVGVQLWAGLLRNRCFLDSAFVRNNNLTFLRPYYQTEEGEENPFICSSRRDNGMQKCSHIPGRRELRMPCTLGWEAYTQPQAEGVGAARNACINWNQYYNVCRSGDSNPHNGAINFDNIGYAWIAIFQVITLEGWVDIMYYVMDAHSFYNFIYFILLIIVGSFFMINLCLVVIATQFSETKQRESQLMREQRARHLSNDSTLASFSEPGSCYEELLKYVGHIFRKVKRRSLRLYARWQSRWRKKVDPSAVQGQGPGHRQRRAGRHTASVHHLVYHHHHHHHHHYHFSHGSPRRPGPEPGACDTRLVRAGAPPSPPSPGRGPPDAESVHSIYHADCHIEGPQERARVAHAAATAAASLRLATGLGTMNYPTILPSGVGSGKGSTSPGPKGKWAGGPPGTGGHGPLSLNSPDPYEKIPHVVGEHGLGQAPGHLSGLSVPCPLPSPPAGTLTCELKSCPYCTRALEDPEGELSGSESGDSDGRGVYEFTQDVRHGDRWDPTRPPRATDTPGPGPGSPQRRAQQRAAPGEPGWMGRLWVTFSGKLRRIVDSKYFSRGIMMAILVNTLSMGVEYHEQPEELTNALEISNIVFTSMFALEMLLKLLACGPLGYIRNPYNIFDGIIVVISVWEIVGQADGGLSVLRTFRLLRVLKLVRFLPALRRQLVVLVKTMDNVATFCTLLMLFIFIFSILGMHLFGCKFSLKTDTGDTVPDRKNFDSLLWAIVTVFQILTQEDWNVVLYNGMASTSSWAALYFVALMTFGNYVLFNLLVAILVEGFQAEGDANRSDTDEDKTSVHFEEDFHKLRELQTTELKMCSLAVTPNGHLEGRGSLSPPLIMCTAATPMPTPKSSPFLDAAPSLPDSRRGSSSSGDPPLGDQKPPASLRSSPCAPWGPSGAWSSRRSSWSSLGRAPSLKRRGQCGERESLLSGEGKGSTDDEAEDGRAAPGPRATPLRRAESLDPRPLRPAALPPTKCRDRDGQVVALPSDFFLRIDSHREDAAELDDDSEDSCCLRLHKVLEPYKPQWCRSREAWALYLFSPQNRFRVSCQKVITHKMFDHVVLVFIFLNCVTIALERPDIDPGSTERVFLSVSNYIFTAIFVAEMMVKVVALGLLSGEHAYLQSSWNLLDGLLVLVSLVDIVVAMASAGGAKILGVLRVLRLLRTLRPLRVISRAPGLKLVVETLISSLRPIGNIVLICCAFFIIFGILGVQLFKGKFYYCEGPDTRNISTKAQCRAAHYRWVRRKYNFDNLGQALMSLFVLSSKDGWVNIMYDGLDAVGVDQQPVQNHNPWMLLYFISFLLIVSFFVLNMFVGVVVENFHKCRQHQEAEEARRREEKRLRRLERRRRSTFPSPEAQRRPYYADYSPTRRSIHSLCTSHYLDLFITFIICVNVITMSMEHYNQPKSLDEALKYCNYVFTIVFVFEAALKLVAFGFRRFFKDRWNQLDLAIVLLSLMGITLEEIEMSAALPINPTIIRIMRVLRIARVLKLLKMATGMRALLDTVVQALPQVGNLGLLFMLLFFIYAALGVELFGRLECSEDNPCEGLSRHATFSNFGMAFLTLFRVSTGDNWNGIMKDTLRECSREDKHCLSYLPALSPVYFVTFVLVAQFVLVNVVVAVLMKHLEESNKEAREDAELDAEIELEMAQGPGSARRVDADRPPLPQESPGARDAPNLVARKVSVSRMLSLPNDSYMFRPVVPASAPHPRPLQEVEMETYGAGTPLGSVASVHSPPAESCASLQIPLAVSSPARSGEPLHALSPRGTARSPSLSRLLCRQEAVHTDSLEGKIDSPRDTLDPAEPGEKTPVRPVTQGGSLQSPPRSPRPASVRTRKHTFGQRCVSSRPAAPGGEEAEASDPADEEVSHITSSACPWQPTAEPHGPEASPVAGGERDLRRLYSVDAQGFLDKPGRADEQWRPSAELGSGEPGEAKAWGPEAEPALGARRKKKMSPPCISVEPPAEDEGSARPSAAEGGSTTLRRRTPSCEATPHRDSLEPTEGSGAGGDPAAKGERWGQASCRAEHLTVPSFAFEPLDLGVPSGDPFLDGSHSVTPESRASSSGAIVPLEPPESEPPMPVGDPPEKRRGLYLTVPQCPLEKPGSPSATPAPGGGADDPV

Take `C/C=C1/CN2CC[C@H]1C(=O)c1[nH]c3ccc(F)cc3c1C2` [WW-4, (4E,5R)-10-fluoro-4-ethylidene-1,4,5,7-tetrahydro-2,5-ethanoazocino[4,3-b]indol-6(3H)-one]: the Emax came out at 1% on DOR (CHO-RD-HGA16, agonist screen, control agonist DPDPE); 1% on KOR (CHO-RD-HGA16, agonist screen, control agonist U69,593); 0% at MOR (CHO-RD-HGA16, agonist screen, control agonist DAMGO). For the same compound, at DOR (antagonist screen, vs EC60 of DPDPE), the “DOR Calcium % DPDPE Inhibition” value is 9%. Also, the “CaV 3.2 % CaCl2 Inhibition” value at CaV 3.2 came out at 6%. Besides, on human CXCR4, the “CXCR4 β-arrestin % CXCL-12Emax (n = 2)” value is on record as 2%. Moreover, the “KOR Calcium % U69, 593 Inhibition” value at KOR (antagonist screen, vs EC60 of U69,593) turned out to be 14%. Further, at MOR (antagonist screen, vs EC60 of DAMGO), the “MOR Calcium % DAMGO Inhibition” value came out at 0%. For the same compound, on ACKR3, the half-maximal effective concentration (EC50) was over 10 µM.
